Experimental data taken from ChEMBL document CHEMBL1201862, “PubChem BioAssay data set” (2004).
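Exposure lasted 48 hours, with cells grown in 96-well plates and compounds tested at five concentrations. The concentration for 50% growth inhibition is given as GI50.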 Activity calls are given as the source filed them. No stated cut-off is given here; in the data, active = GI50 up to about 1.1 µM and inactive = higher.

Key:
Assay in all cases: NCI tumour cell line growth inhibition, 48 h
DLD-1 = test system: DLD-1
UACC-257 = test system: UACC-257
M14 = test system: M14
LOX IMVI = test system: LOX IMVI
NCI-H226 = test system: NCI-H226
OVCAR-4 = test system: OVCAR-4
SK-MEL-2 = test system: SK-MEL-2
KM12 = test system: KM12
HL-60 = test system: HL-60
NCI-H23 = test system: NCI-H23
NCI-H522 = test system: NCI-H522
K562 = test system: K562
IGROV-1 = test system: IGROV-1
MOLT-4 = test system: MOLT-4
UACC-62 = test system: UACC-62

SMILES | GI50 (DLD-1) | GI50 (UACC-257) | GI50 (M14) | GI50 (LOX IMVI) | GI50 (NCI-H226) | GI50 (OVCAR-4) | GI50 (SK-MEL-2) | GI50 (KM12) | GI50 (HL-60) | GI50 (NCI-H23) | GI50 (NCI-H522) | GI50 (K562) | GI50 (IGROV-1) | GI50 (MOLT-4) | GI50 (UACC-62)
CCN1CC2(C)CC[C@@H](OC)C34[C@@H]2[C@H](OC(C)=O)C2(OCO[C@@]25C[C@H](OC)C2C[C@]3(O)[C@@H]5[C@H]2O)[C@H]14 | > 100 µM (inactive) | > 100 µM (inactive) | > 100 µM (inactive) | > 100 µM (inactive) | > 100 µM (inactive) | > 100 µM (inactive) | > 100 µM (inactive) | > 100 µM (inactive) | > 100 µM (inactive) | > 100 µM (inactive) | > 100 µM (inactive) |  |  |  | 
COC(=O)c1[nH]c(=S)[nH]c(=O)c1-c1ccc(Cl)cc1 | > 50 µM (inactive) | > 50 µM (inactive) | > 50 µM (inactive) | > 50 µM (inactive) | > 50 µM (inactive) | > 50 µM (inactive) | > 50 µM (inactive) | > 50 µM (inactive) | > 50 µM (inactive) | > 50 µM (inactive) | > 50 µM (inactive) | > 50 µM (inactive) | > 50 µM (inactive) | > 50 µM (inactive) | > 50 µM (inactive)
O=S(O)CCCCSSCCCCSSCCCCS(=O)O | 86.1 µM (inactive) | 10.1 µM (inactive) | 11.2 µM (inactive) | 12.8 µM (inactive) |  | 16 µM (inactive) | 24.9 µM (inactive) | 76 µM (inactive) | 3.25 µM (inactive) | 36 µM (inactive) | 13 µM (inactive) | 15 µM (inactive) | > 100 µM (inactive) | 0.851 µM (active) | 12.1 µM (inactive)
CC(=O)Nc1ccc(/C=N\N2C(=O)c3ccccc3C2=O)cc1 | > 100 µM (inactive) | > 100 µM (inactive) | > 100 µM (inactive) | > 100 µM (inactive) | > 100 µM (inactive) | > 100 µM (inactive) | > 100 µM (inactive) | > 100 µM (inactive) | > 100 µM (inactive) | > 100 µM (inactive) |  | > 100 µM (inactive) | > 100 µM (inactive) | > 100 µM (inactive) | > 100 µM (inactive)
O=C1Nc2ccc([N+](=O)[O-])cc2/C1=N/Nc1ccc([N+](=O)[O-])cc1 | 17.8 µM (inactive) | 21.1 µM (inactive) | 15.8 µM (inactive) | 27.5 µM (inactive) | 2.72 µM (inactive) | 19.5 µM (inactive) | 30.1 µM (inactive) | 12.4 µM (inactive) |  | 20.3 µM (inactive) | 17.2 µM (inactive) | 26.9 µM (inactive) | 48.2 µM (inactive) | 41.6 µM (inactive) | 14.6 µM (inactive)
Nc1nc2c(-c3ccc([N+](=O)[O-])cc3)nnn2c2ccccc12 | > 100 µM (inactive) |  | > 100 µM (inactive) | > 100 µM (inactive) | > 100 µM (inactive) | > 100 µM (inactive) | > 100 µM (inactive) | > 100 µM (inactive) | > 100 µM (inactive) | 37.2 µM (inactive) |  | > 100 µM (inactive) | > 100 µM (inactive) | > 100 µM (inactive) | > 100 µM (inactive)
CC1(C)CC23C(=O)N(c4ccccc4)C(Nc4ccccc4)=NC2=CC(C#N)=C(C#N)C3O1 (stereo not drawn) | 56.2 µM (inactive) | 43.3 µM (inactive) | > 100 µM (inactive) | 64.4 µM (inactive) | 26.4 µM (inactive) | 22.6 µM (inactive) | 61.5 µM (inactive) | 46.6 µM (inactive) | 27.4 µM (inactive) | 34.9 µM (inactive) | 20.1 µM (inactive) | 72.4 µM (inactive) | > 100 µM (inactive) | 29.3 µM (inactive) | 96.4 µM (inactive)
Cc1c(NC(=S)NC(=O)c2ccc([N+](=O)[O-])cc2)c(=O)n(-c2ccccc2)n1C | > 100 µM (inactive) | > 100 µM (inactive) | > 100 µM (inactive) | > 100 µM (inactive) | > 100 µM (inactive) | > 100 µM (inactive) | > 100 µM (inactive) | > 100 µM (inactive) | > 100 µM (inactive) | > 100 µM (inactive) | > 100 µM (inactive) | > 100 µM (inactive) | > 100 µM (inactive) | > 100 µM (inactive) | > 100 µM (inactive)
Cc1nnc2n1N=C(c1ccccc1)C(c1ccccc1)S2 (stereo not drawn) | 55.3 µM (inactive) | 67.1 µM (inactive) | 16.3 µM (inactive) | 45.2 µM (inactive) |  | 57.9 µM (inactive) | 29.9 µM (inactive) | 42.1 µM (inactive) | 24.5 µM (inactive) | 24.3 µM (inactive) | 24.6 µM (inactive) | 31.8 µM (inactive) | 97.5 µM (inactive) | 34.1 µM (inactive) | 39.5 µM (inactive)
COc1ccc2ccccc2c1C1OC(=O)c2ccccc21 (stereo not drawn) | > 100 µM (inactive) | 91 µM (inactive) | > 100 µM (inactive) | > 100 µM (inactive) | > 100 µM (inactive) | 82.8 µM (inactive) |  | 56.6 µM (inactive) | 44.3 µM (inactive) | > 100 µM (inactive) | 63.5 µM (inactive) | 33 µM (inactive) | > 100 µM (inactive) | 44.2 µM (inactive) | 80 µM (inactive)
O=C(O)C1CCc2nnc(-c3ccccc3)n21 (stereo not drawn) | > 100 µM (inactive) | > 100 µM (inactive) | > 100 µM (inactive) |  | > 100 µM (inactive) | > 100 µM (inactive) | > 100 µM (inactive) | > 100 µM (inactive) | > 100 µM (inactive) |  | > 100 µM (inactive) | > 100 µM (inactive) | > 100 µM (inactive) | > 100 µM (inactive) | > 100 µM (inactive)
CC1=NN(C(=O)Cc2ccccc2)C(=O)/C1=C/c1c(O)ccc2ccccc12 | 10 µM (inactive) | 37.5 µM (inactive) | 10 µM (inactive) | 27.5 µM (inactive) | 27 µM (inactive) | 78.9 µM (inactive) | 1.7 µM (inactive) | 68.5 µM (inactive) | 49.2 µM (inactive) | 61.7 µM (inactive) | 67.9 µM (inactive) | 40.6 µM (inactive) |  | 22.8 µM (inactive) | 
C=C(/C=C/C=C(\CO)CCC=C(C)C)[C@H]1CCC2([C@H](CCCO)/C(=C(/C)C=O)CC[C@]2(C)O)[C@H]1O (stereo partly drawn) | > 100 µM (inactive) | > 100 µM (inactive) | > 100 µM (inactive) | 54.2 µM (inactive) |  | > 100 µM (inactive) | > 100 µM (inactive) | > 100 µM (inactive) | 56.1 µM (inactive) | > 100 µM (inactive) |  | 51.4 µM (inactive) | > 100 µM (inactive) | > 100 µM (inactive) | > 100 µM (inactive)
Cc1cccc(NC(=O)/C(=N\NC(C)(C)C)C2NC(=S)NC2=O)c1C (stereo not drawn) | > 100 µM (inactive) | > 100 µM (inactive) | > 100 µM (inactive) |  |  | > 100 µM (inactive) | > 100 µM (inactive) | > 100 µM (inactive) | > 100 µM (inactive) |  |  | > 100 µM (inactive) | > 100 µM (inactive) | > 100 µM (inactive) | > 100 µM (inactive)
CCc1cccc(CC)c1NC(=O)C1=C(C)NC(C)=C(C(=O)Nc2c(CC)cccc2CC)C1c1ccc([N+](=O)[O-])cc1 | 21.4 µM (inactive) | 15.4 µM (inactive) | 17.5 µM (inactive) | 30.9 µM (inactive) | 26.1 µM (inactive) | 12.3 µM (inactive) | 20 µM (inactive) | 18 µM (inactive) | 16.4 µM (inactive) | 22.8 µM (inactive) | 13.3 µM (inactive) | 19.1 µM (inactive) | 14.4 µM (inactive) | 14.7 µM (inactive) | 
C[C@]12CCC(=O)C=C1CC[C@@H]1C2CC[C@]2(C)c3nn(-c4ccccc4)nc3CC12 (stereo partly drawn) | > 100 µM (inactive) | > 100 µM (inactive) | > 100 µM (inactive) | > 100 µM (inactive) | > 100 µM (inactive) | > 100 µM (inactive) | > 100 µM (inactive) | > 100 µM (inactive) | > 100 µM (inactive) | > 100 µM (inactive) |  | > 100 µM (inactive) | > 100 µM (inactive) | > 100 µM (inactive) | > 100 µM (inactive)
N#CC1=C(Cl)NC(Cl)=C(C#N)C1c1c(Cl)cccc1Cl | 21.4 µM (inactive) | 22.1 µM (inactive) | 38.8 µM (inactive) | 17.3 µM (inactive) | > 100 µM (inactive) |  | 58.3 µM (inactive) | 21.8 µM (inactive) | 19.6 µM (inactive) | 35.9 µM (inactive) | 17.2 µM (inactive) | 19 µM (inactive) | 37.9 µM (inactive) | 32.5 µM (inactive) | 30.2 µM (inactive)
N/C=N/S(=O)(=O)c1ccc(NC(=O)COC(=O)c2cccc3c(=O)c4ccccc4[nH]c23)cc1 | > 100 µM (inactive) | > 100 µM (inactive) | 67.8 µM (inactive) | > 100 µM (inactive) | > 100 µM (inactive) |  |  | > 100 µM (inactive) | > 100 µM (inactive) | > 100 µM (inactive) | > 100 µM (inactive) | > 100 µM (inactive) | > 100 µM (inactive) | > 100 µM (inactive) | > 100 µM (inactive)
CC1=C(O)C(=O)C2C(=O)C1C(C)C2c1ccccc1 (stereo not drawn) | > 100 µM (inactive) | > 100 µM (inactive) | > 100 µM (inactive) | > 100 µM (inactive) | > 100 µM (inactive) | > 100 µM (inactive) | > 100 µM (inactive) | > 100 µM (inactive) |  | > 100 µM (inactive) | > 100 µM (inactive) | > 100 µM (inactive) | > 100 µM (inactive) | > 100 µM (inactive) | > 100 µM (inactive)
